System: radiation dermatitis in rat skin
Test: Rat radiation dermatitis assay, topical application before irradiation
Type: in vivo
Protocol: To determine if PrC-210 could function as a topical radioprotector that could prevent radiation dermatitis when applied prior to a cancer patient's daily radiotherapy, a rat assay that realistically mimics human radiation dermatitis was created. This assay quantifies the severity of radiation dermatitis in rat skin 13 days after a single radiation dose of 17.33 Gy.
In this study, PrC-210 was applied to rat skin in an ethanol/water delivery vehicle four times in the 2 h before irradiation, and control rats received only topical vehicle before irradiation (FIG. 2). Additional drug/irradiation groups of three rats each received either the alkyl-thiol moiety or the alkyldiamine moiety from PrC-210 in the same delivery vehicle. Following the 17.33 Gy irradiation of a […] patch of dorsal skin on the rats' backs, rats were scored 13 days later.
Molecules were applied to skin in an alcohol/water delivery vehicle prior to receiving a 17.33 Gy radiation dose to the 1.5 cm×3.0 cm skin site. Radiation dermatitis severity (i.e., % of the site covered by scab material) was scored 13 days following irradiation.

CNCC(CS)CNC [PrC-210, 3-(methyl-amino)-2-((methylamino)methyl)propane-l-thiol]
topical radioprotective potency and efficacy compared with thiolated polyamines and other PrC-200 series aminothiols (radiodermatitis test groups): most potent and most effective topical aminothiol to date | prevention of radiation dermatitis (% of the site covered by scab material) (topical in ethanol/water vehicle four times in the 2 h before single 17.33 Gy dose, scored 13 days later): completely prevent radiation dermatitis

Source: US20160243062A1, “SYNTHESIS AND GROWTH REGULATORY ACTIVITY OF A PROTOTYPE MEMBER OF A NEW FAMILY OF AMINOTHIOL RADIOPROTECTORS” (WISCONSIN ALUMNI RESEARCH FOUNDATION, priority 2012, published 2016)
